# Source: patent EP0462621A2, “Use of particular compounds for manufacture of pharmaceutical formulations for treatment against various parasites, mycoplasmas, other indications and other infections” (Prendergast, Patrick Thomas, priority 1990, dated 1991)
# Like-named read-outs stand apart in the source and are kept apart here.
# What was measured:
# T. cruzi [1] = experiment: T. cruzi epimastigote (EPI) in-vitro screen; type: cell-based
# Description: (§1) In-vitro chemotherapy screens have for many years used models involving three stages of the T. cruzi life cycle: • (1) Epimastigote. Dividing populations are easily cultivated in a range of defined and semi-defined media, but are equivalent to a vector stage of the life cycle. • (2) Trypomastigote. These are isolated from a rodent host and can be maintained as a non-dividing population for 24-48 h in media. • (3) Amastigote. Dividing populations can be cultivated in muscle cells, fibroblasts and macrophages, following infection with trypomastigotes. After the initial infection, there is normally a period of 4-5 days during which the amastigotes divide before transforming, via the epimastigote stage, back to trypomastigotes which escape from the cell. Drug activity is measured during this 4-5 day period. A dividing host cell population, low infection rate, and the presence of trypomastigotes in the overlay can complicate the interpretation of results.
# (§2) In-vitro and in-vivo models were used to test activities of a selection of many compounds.
# PBL = experiment: Growth of PBL following cocultivation of patient's lymphocytes with PHA-PBL; type: cell-based, human; details: 30 u.M or lower; up to 10 days in culture
# T. cruzi [2] = experiment: T. cruzi trypomastigote (TRY) in-vitro screen; type: cell-based
# Description: as §1, §2
# Epstern-Barr Virus (EBV) = experiment: P3HR1 cells, EBV, immunofluorescence; type: cell-based; details: P3HR1 cells in-vitro
# Description: Experiments were carried out using concentrated P3HR1 […]. […] Infection of Raji cells by infectious EBV induces early antigens (EA) in the cells in proportion to the titer of infectious virus. EA was detected using a monoclonal antibody.
# The assay was set up with Raji cells exposed for 2 hours to serial 10 fold dilutions of the P3HR1 virus. Excess virus was separated by centrifugation and removed. Aliquots of cells infected at each dilution were distributed into 12 well trays (0.5 ml/well), and 0.5 ml of medium containing twice the desired final medium concentration was added to each well.
# At 24 and 72 hours, aliquots of each well were washed, added to Teflon® outlined wells on a glass slide, air dried to attach then to the glass, and then fixed with acetone-methanol (50:50). Standard immunofluorescence procedures were followed to quantify the percent of cells containing virus at each time, virus dilution and drug concentration.
# human mononuclear cells = experiment: Mixed leukocyte culture (MLC) reaction; type: cell-based
# Description: T and B lymphocytes from normal human donors were incubated for 30 minutes at various dose levels of the compounds indicated. The lymphocytes were added in triplicate wells in gentamicin and phytohemagglutinin (PHA) (a T cell mitogen), pokeweed mitogen (PWM) (a B cell mitogen) and allogeneic mononuclear cells (mixed leukocyte cultures; MLC) or media containing the above additives. The lymphocyte blastogenesis assay is described in detail below.
# Mixed leukocyte culture (MLC) reactions may be used to evaluate the ability of human mononuclear cells to recognize and immunologically react to human histocompatibility antigen (measurement of the ability of the cells to mount a primary immune response to an antigen). Cultures of one set of human mononuclear cells were reacted with mononuclear cells from an unrelated donor in lymphocyte blastogenesis assays and the proliferation of the first set of cells was quantitated. The results are presented in Charts la(e) (v) and la(e) (vi) (Figs. 5 and 6). Again, as with lymphocyte blastogenesis with mitogens, the MLC was run in replicates of three and a mean value obtained.
# • 1. Mononuclear cells are separated from whole blood by differential centrifugation using a synthetic separation medium, or are thawed from a cryopreserved preparation. The cells are washed and resuspended in media (RPMI - 1640, L-Glutamine 2mM, Herpes Buffer 25mM, Gentamicin 50 ug/ml, Human AB Serum-heat inactivated (56°, 30°) 20%). • 2. A viable cell count is determined. • 3. Cell concentration is adjusted to 2 x 10^6 /ml in media. • 4. The cell suspension is added to wells of a 96-well flat bottom plate in 0.1 ml aliquots (2 x 10^5 cells). • 5. The selected mitogens and/or antigens (in media without serum) are added to the cells in the wells also in 0.1 ml aliquots. • 6. The cultures are incubated for 3-7 days (depending upon the mitogen or antigen) at 37° C in a humidified 5% C02 atmosphere. • 7. […] The vials are counted in a liquid scintillation counter for one minute where the amount of incorporated ^3HTdR is determined.
# HIV-1 = experiment: Experiment la(b): H9 cells, HIV-1, antibody assay; type: cell-based; details: Human immunodeficiency virus 1
# Description: Fresh macrophage cultures were obtained by incubation of mononuclear cells obtained from a leukopak directly in the wells of a microtiter plate having 6 wells per row. After removal of non-adherent cells, each row of the adherent macrophages was infected with 10-fold serial dilutions of HIV-I, with the use of polybrene to enhance uptake of the virus. After one to two hours, the virus inoculum was removed and replaced with fresh normal growth medium. The fresh medium for each row contained a particular concentration of AZT, dideoxy cytidine (ddC), or compound la, as indicated by the left-hand column of Table la(a). The first row of wells acted as a control, and to it was added fresh medium containing none of the three drugs. Medium levels were maintained for two to four weeks to allow replication of the virus to take place, with at least one complete fluid change to remove residual virus inoculum. The contents of each well were then tested for the level of HIV p24 antigen present using a commercially available antigen capture kit employing a radio-immunoassay which can detect as little as 10'^9gm of p24 present in a sample. The above procedure was done in duplicate runs.
# A procedure similar to that followed in Experiment la(a) was followed using infected H9 cells, H9 cells being a permanent human T-cell line.
# A procedure similar to that followed in Experiment la(a) was followed using infected H9 cells, being a permanent human T-cell line.
# 81-66-45 Cells = experiment: Cytotoxicity on uninfected 81-66-45 cells, 10 days continuous exposure; type: cell-based; details: read-out: ID50 - The concentration of IPA which kills 50% of the cells
# Description: The "Percent Dead Cells" are taken from Tables la(d) (iii) and la(d) (v) using the 10-day value, and the therapeutic index have been calculated for each drug concentration. The results of IPA are also graphed in Figures 16 and 17. Cytotoxicity (the dashed line) is calculated as the percent live cells.
# The availability of toxicity data collected in the same time frame as required for determination of antiviral effectiveness allowed determination of values for two different cell lines. Figures 16 and 17 illustrate the curves obtained by plotting the cytotoxicity of IPA (as a percent of the control cell viability) versus the percent of inhibition of HIV-1 replication (as a percent of the control titer) when H9 and 81-66-45 cells were tested. The cytotoxicity data obtained with 10 days continuous exposure, using uninfected cells, were used since 10 days was the length of time required to carry out the infectivity test. As is apparent from Tables la-(d) (ii) - la(d) (v), toxicity is much lower when the drug is added to cells for one day and then removed, or when cells are exposed for only 1 or 4 days. It is difficult to mimic in-vivo exposure times, particularly if metabolites are more toxic than the parent compound and are readily cleared in-vivo but not in-vitro.
smiles,measurement,setting,value
"CC(C)=CCNc1ncnc2c1ncn2[C@@H]1O[C@H](CO)[C@@H](O)[C@H]1O [IPA, N^6-(Δ^2-isopentenyl) adenosine]","activity, EPI",T. cruzi [1]; T. cruzi strain MR,"++(Y,MR, Sonya)"
same,"activity, EPI",T. cruzi [1]; T. cruzi strain Sonya,"++(Y,MR, Sonya)"
same,"activity, EPI",T. cruzi [1]; T. cruzi strain Y,"++(Y,MR, Sonya)"
same,cytotoxic effect on the growth of viable PHA stimulated PBL,PBL,did not have any significant cytotoxic effect
same,"activity, TRY",T. cruzi [2]; T. cruzi strain Sonya,"+ (Y,Sonya)"
same,"activity, TRY",T. cruzi [2]; T. cruzi strain Y,"+ (Y,Sonya)"
same,levels of Epstern-Barr Virus (EBV),Epstern-Barr Virus (EBV),reduces
same,reduction in MLC reactivity,human mononuclear cells; 1 µM,50%
same,MLC reactivity,human mononuclear cells; 10 µM,No effect
same,MLC reactivity,human mononuclear cells; 100 u.M,slight increase
same,IC50,"HIV-1; H9, HIV-1, as read from Figure 15, read-out: IC50",2 µM
same,IC90,"HIV-1; H9, HIV-1, as read from Figure 15, read-out: IC90",3 µM
same,IC50,"HIV-1; H9 Cells, from Figures 16 and 17, read-out: IC50 - The concentration of IPA which inhibits the replication of HIV-1 by 50%",6 µM
same,IC90,"HIV-1; H9 Cells, from Figures 16 and 17, read-out: IC90 - The concentration of IPA which inhibits the replication of HIV-1 by 90%",10 µM
same,CC50,81-66-45 Cells,40 µM
